Laboratory results reported in ChEMBL document CHEMBL1201862, “PubChem BioAssay data set” (2004).
The source made the active and inactive calls.

How the values were obtained:
HT-1080 = assay: cytotoxicity in HT1080 fibrosarcoma cells, cell-based, fluorescence readout (AID 620); type: functional; details: Homo sapiens
[1] = molecular target: T1, DNA repair and recombination protein RAD54-like (Homo sapiens, UniProt Q92698); assay: inhibitors of human RAD54 branch migration, confirmation, biochemical, fluorescence, cherry-picked samples, dose series (AID 651657); type: functional
T1 sequence (Q92698 whole entry): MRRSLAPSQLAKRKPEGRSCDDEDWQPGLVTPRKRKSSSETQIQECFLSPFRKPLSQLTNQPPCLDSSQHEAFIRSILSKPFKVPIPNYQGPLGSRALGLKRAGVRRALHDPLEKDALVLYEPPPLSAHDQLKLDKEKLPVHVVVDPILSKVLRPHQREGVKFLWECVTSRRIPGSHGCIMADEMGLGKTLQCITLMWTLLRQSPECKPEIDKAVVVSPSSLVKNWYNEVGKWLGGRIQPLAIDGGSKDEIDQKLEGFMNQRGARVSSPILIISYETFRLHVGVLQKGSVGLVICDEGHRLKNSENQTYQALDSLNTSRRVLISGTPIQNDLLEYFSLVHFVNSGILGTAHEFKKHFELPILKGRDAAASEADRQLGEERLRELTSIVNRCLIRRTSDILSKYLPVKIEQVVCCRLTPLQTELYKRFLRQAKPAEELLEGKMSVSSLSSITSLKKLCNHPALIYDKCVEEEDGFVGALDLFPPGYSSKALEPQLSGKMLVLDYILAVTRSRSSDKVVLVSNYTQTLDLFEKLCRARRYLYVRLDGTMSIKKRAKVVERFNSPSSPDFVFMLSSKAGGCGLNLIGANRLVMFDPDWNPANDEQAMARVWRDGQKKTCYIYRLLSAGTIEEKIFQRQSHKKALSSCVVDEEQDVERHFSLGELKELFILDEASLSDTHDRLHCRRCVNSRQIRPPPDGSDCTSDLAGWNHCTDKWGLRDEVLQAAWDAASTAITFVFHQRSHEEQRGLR

[2] = molecular target: T2, DNA repair protein RAD52 homolog (Homo sapiens, UniProt P43351); type: functional, biochemical
T2 sequence (P43351 whole entry): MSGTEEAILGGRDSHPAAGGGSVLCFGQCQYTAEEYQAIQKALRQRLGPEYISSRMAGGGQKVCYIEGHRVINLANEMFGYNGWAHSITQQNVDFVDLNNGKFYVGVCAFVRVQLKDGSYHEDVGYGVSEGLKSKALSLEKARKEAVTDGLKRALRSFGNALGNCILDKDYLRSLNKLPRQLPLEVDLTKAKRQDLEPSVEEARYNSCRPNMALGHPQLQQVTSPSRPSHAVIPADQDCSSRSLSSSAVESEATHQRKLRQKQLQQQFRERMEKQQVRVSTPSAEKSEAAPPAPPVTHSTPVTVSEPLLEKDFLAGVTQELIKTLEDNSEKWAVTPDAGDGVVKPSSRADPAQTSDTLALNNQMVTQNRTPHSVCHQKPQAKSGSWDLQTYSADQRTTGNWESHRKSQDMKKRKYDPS

INS1 = assay: beta cell apoptosis inhibitors, cytokine rescue, dose response, luminescence, retest (AID 449756); type: functional, cell-based; details: Rattus norvegicus, INS1;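 note: cell death triggered by IL-1 beta plus TNF-alpha plus IFN-gamma mixture; protective hits raise ATP signal compared with cytokine alone wells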
[3] = molecular target: Luciferin 4-monooxygenase (Photinus pyralis, UniProt P08659); assay: Counter Screen for Luciferase-based Assay Positives. [Related pubchem assays: 620, 618, 411 ]
[4] = inhibitors of intracellular T. cruzi replication, confirmation, NIH3T3 host cells, beta-gal luminescence (AID 2044); type: functional, cell-based;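 note: intracellular parasites grown in NIH/3T3 mouse fibroblasts as host cells; luminescent beta-galactosidase reporter signal from transgenic T. cruzi replicating inside host cells; inhibitors lower the luminescence signal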
Bcl-2-like protein 10 = molecular target: T3, Bcl-2-like protein 10 (Homo sapiens, UniProt Q9HD36); assay: displacers of TR3 peptide from Bcl-B, primary screen, selectivity assay for Bfl-1 inhibitor project, biochemical, fluorescence polarization, FITC-TR3 peptide (AID 748);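 note: fluorescence polarization from a fluorescein-labelled TR3 peptide binding purified Bcl-B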
T3 sequence (Q9HD36 whole entry): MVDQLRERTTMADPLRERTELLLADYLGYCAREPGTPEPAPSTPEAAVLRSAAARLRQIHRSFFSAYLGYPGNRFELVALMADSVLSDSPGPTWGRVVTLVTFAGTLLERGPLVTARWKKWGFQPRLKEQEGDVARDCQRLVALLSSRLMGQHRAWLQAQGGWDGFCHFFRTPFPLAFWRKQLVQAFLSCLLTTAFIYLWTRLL

H4 = assay: Luminescence Cell-Based Dose Response HTS to Identify Activators of 5'UTR Stem-Loop Driven Prion Protein mRNA Translation in H4 Neuroglioblastoma Cells. [Related pubchem assays: 1829 (Project Summary), 1814 (Primary HTS)]; type: functional; details: Homo sapiens
Large T antigen = Large T antigen (Simian virus 40, UniProt P03070); type: functional, Betapolyomavirus macacae;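 note: Confirmatory-stage PubChem screen for compounds that inhibit SV40 T antigen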
[5] = Luminescence Cell-Based Dose Confirmation HTS to Identify Activators of 5'UTR Stem-Loop Driven Alpha-Synuclein mRNA Translation in H4 Neuroglioblastoma Cells. [Related pubchem assays: 1829 (Project Summary), 1814 (Primary HTS)]; type: functional
[6] = cytotoxicity toward NIH3T3 fibroblasts, dose response, counter-screen, cell-based, ATP luminescence, mouse fibroblasts (AID 2010); type: functional;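 note: cells exposed to compound for about 90 hours before reading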
[7] = Luminescence Cell-Based Dose Response HTS to Identify Activators of Luciferase Translation or Activity in H4 […] Cells. [Related pubchem assays: 1829 (Project Summary), 1814 (Primary HTS)]; type: functional
[8] = molecular target: T4, Short transient receptor potential channel 4 (Mus musculus, UniProt Q9QUQ5); assay: mouse TRPC4 channel inhibitors, dose response, cell-based, HEK293 TRPC4/mu-opioid, Fluo-4 calcium (AID 434942); type: functional;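 note: potency of inhibitors blocking the TRPC4 calcium response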
T4 sequence (Q9QUQ5 whole entry): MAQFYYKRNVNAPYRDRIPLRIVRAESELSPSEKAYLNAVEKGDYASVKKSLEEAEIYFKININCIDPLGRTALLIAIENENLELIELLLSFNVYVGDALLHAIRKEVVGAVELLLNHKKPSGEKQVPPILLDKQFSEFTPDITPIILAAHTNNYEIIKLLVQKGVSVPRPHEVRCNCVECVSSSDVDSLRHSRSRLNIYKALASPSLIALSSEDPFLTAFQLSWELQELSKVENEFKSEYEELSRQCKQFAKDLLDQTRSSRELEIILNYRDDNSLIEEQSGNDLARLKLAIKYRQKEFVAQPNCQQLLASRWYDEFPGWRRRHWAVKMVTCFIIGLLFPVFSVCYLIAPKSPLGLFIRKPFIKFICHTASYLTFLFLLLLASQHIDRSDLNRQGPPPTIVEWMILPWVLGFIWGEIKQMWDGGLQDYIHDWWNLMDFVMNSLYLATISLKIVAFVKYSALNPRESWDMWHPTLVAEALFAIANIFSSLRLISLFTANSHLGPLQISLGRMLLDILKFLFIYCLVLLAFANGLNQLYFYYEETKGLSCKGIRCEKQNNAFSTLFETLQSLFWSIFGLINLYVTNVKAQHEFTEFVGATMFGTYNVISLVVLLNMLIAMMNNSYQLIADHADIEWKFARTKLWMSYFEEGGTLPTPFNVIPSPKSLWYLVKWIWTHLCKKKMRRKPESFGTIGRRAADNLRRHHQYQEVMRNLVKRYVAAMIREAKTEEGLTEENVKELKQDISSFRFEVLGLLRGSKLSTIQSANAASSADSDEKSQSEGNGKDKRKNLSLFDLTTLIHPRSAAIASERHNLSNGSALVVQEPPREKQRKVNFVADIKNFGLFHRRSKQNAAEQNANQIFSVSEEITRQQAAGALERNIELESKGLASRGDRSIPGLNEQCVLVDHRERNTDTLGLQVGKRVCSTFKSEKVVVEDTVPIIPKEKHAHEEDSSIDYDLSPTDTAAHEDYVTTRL

[9] = molecular target: Heat shock cognate 71 kDa protein (Homo sapiens, UniProt P11142); assay: In Vitro Hsc70 Dose Response Fluorescence Polarization Assay. [Related pubchem assays: 1072 ]
[10] = molecular target: Heat shock 70 kDa protein 1A (Homo sapiens, UniProt P0DMV8); assay: Hsp70 inhibitors, SAR follow-up, biochemical, fluorescence polarization (AID 1072)
[11] = molecular target: Photoreceptor-specific nuclear receptor (Homo sapiens, UniProt Q9Y5X4); type: functional;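 note: potency for compounds that break the NR2E3 corepressor complex and count as activators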
[12] = molecular target: Peroxisome proliferator-activated receptor gamma/Nuclear receptor coactivator 3 (Homo sapiens, UniProt P37231); assay: TR-FRET dose response biochemical High Throughput Screening assay for agonists of the steroid receptor coactivator 3 (SRC-3) recruitment by the peroxisome proliferator-activated receptor gamma (PPAR gamma): non-selective agonists. [Related pubchem assays: 1301 (Confirmation screen.), 1048 (Primary screen.)]; type: functional
[13] = molecular target: Peroxisome proliferator-activated receptor gamma/Nuclear receptor corepressor 2 (Homo sapiens, UniProt P37231+Q9Y618); type: functional
[14] = molecular target: Peroxisome proliferator-activated receptor gamma/Nuclear receptor coactivator 2 (Homo sapiens, UniProt P37231); assay: (§1) TR-FRET dose response biochemical High Throughput Screening assay for agonists of the steroid receptor coactivator 2 (SRC-2) recruitment by the peroxisome proliferator-activated receptor gamma (PPAR gamma): non-selective agonists. [Related pubchem assays: 1297, 1032 ]; type: functional
[15] = molecular target: Peroxisome proliferator-activated receptor gamma/Nuclear receptor coactivator 1 (Homo sapiens, UniProt P37231); assay: as §1, with “1 (SRC-1)” for “2 (SRC-2)”, “assays (depositor defined):AID1300, AID1808, AID504735, AID631]” for “assays: 1297, 1032 ]”; type: protein assay

Sequence of Heat shock cognate 71 kDa protein (P11142 whole entry): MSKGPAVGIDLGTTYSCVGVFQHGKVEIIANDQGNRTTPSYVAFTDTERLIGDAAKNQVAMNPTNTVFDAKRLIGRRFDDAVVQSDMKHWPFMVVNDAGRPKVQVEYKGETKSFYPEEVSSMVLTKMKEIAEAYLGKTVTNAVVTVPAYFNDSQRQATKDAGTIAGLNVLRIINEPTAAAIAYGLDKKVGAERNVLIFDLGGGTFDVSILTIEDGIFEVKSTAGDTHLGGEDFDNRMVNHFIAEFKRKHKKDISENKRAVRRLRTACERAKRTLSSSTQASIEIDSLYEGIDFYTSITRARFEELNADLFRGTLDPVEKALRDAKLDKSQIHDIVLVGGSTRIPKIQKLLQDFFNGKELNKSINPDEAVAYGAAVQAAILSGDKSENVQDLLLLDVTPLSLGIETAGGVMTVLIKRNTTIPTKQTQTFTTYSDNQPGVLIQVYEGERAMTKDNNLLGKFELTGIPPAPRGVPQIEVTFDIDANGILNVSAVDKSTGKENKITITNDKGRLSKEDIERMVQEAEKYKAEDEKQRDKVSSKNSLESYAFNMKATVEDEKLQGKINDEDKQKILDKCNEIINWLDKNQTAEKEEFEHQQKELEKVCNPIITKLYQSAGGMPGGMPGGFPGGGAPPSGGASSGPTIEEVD
Sequence of Peroxisome proliferator-activated receptor gamma/Nuclear receptor coactivator 3 (P37231 whole entry): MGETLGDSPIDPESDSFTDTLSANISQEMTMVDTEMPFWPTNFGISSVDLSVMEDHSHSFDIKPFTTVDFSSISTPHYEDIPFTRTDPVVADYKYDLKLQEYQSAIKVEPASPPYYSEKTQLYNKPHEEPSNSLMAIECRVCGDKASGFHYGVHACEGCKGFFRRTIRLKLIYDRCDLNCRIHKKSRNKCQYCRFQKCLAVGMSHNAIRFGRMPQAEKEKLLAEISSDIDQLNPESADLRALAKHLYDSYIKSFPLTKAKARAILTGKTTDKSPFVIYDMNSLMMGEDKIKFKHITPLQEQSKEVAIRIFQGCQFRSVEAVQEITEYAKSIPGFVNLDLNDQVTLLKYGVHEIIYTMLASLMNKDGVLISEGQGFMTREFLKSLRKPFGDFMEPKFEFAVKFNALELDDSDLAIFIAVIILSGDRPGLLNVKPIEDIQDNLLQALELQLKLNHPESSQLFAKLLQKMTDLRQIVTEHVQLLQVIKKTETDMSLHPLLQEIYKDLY
Sequence of Peroxisome proliferator-activated receptor gamma/Nuclear receptor coactivator 3 (Q9Y6Q9 whole entry, further chain): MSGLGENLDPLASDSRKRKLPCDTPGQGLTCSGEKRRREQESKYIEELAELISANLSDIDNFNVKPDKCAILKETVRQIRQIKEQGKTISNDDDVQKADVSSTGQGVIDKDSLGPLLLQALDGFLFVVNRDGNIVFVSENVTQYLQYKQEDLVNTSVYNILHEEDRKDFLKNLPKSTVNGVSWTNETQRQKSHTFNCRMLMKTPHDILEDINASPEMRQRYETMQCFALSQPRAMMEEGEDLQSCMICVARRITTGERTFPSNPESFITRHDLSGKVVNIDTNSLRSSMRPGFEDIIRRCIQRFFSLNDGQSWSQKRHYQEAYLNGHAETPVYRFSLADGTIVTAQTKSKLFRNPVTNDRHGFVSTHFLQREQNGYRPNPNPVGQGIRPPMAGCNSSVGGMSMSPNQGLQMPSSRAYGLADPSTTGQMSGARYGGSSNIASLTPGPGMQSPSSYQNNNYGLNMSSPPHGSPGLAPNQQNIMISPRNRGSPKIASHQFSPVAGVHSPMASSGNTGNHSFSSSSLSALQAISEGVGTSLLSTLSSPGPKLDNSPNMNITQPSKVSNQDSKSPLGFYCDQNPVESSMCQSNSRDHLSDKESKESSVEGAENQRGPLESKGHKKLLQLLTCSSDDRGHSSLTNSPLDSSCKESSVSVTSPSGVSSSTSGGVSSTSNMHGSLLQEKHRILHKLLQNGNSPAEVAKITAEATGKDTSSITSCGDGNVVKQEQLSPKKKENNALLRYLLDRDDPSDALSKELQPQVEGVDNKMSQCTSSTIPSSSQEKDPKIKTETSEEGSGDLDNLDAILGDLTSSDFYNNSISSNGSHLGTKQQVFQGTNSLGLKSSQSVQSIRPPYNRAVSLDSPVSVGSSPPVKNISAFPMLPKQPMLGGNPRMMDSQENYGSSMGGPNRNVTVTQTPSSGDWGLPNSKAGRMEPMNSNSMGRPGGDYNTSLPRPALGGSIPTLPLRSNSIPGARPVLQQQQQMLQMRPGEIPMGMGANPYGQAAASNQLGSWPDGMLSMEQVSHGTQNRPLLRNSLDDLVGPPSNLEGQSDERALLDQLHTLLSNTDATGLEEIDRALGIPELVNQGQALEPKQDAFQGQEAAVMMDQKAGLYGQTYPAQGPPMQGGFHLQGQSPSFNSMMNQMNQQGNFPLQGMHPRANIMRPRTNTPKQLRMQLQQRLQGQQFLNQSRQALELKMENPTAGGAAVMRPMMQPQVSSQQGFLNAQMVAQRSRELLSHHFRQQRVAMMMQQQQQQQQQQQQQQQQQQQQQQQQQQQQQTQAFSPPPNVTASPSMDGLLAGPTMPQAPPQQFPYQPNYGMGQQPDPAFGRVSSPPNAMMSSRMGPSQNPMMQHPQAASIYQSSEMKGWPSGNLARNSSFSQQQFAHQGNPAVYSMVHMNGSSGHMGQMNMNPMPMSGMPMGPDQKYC
Sequence of Peroxisome proliferator-activated receptor gamma/Nuclear receptor coactivator 2 (P37231 whole entry): as the sequence (P37231 whole entry) above
Sequence of Peroxisome proliferator-activated receptor gamma/Nuclear receptor coactivator 2 (Q15596 whole entry, further chain): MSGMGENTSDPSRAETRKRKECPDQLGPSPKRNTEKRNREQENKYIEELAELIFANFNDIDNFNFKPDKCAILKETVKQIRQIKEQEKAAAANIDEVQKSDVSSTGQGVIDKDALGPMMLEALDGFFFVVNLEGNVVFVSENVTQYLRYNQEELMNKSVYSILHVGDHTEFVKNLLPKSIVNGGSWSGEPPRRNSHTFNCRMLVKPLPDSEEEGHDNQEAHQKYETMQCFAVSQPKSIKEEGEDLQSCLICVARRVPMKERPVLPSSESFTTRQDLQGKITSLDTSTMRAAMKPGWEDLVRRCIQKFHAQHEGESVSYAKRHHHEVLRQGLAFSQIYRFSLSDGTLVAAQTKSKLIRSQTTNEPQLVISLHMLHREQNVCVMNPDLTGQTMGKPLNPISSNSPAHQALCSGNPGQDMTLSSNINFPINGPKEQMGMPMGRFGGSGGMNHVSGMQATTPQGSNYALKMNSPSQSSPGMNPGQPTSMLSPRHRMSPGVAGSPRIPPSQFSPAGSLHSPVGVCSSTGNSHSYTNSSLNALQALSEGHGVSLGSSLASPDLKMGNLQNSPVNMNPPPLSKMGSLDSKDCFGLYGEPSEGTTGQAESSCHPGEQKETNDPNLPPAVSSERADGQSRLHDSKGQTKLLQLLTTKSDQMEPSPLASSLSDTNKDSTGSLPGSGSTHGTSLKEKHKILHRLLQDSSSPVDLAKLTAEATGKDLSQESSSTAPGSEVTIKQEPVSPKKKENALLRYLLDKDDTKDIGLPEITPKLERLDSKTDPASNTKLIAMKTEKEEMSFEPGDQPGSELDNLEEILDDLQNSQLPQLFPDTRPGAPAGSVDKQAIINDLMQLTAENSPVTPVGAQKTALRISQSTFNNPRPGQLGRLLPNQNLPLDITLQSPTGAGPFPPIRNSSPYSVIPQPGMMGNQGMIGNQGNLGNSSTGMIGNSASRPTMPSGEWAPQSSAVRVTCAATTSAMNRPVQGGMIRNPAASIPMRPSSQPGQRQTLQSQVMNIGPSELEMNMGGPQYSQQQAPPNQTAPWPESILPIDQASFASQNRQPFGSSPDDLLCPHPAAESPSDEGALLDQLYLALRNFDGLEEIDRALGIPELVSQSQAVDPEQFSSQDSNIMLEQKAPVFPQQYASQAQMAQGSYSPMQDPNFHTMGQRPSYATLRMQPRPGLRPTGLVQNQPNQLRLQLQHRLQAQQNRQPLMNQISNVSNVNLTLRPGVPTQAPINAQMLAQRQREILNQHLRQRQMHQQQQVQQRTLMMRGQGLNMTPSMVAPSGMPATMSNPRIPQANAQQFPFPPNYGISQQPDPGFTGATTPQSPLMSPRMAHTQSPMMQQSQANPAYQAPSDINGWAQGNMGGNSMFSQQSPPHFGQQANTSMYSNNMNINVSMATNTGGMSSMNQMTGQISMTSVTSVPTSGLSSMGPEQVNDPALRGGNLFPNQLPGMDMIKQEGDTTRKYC
Sequence of Luciferin 4-monooxygenase (P08659 whole entry): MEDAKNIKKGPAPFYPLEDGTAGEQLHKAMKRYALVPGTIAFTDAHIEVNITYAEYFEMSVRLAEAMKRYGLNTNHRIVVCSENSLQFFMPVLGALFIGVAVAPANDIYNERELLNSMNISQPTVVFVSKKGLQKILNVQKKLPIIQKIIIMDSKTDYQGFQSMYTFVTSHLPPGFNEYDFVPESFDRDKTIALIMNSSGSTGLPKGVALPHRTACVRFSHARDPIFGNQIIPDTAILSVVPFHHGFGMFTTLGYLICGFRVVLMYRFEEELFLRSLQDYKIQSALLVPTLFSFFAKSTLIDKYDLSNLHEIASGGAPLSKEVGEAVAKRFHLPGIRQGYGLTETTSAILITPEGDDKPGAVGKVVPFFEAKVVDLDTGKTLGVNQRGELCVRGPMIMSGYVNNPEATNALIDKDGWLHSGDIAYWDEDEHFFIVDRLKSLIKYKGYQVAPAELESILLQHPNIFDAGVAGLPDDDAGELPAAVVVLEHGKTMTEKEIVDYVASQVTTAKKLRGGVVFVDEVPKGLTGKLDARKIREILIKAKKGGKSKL

Oc1ccc(Nc2nc(N3CCCC3)c3ccccc3n2)cc1
EC50 (HT-1080): 25.7 µM (active) | AC50 [1]: 6.91 µM (active) | AC50 [2]: 13.3 µM (active) | AC50 (INS1): 7.85 µM (active) | EC50 [3]: < 0.2 µM (active) | EC50 [4]: 2.11 µM (active) | IC50 (Bcl-2-like protein 10): 43.9 µM (active) | EC50 (H4): > 120 µM (not active) | IC50 (Large T antigen): 4.72 µM (active) | EC50 [5]: > 120 µM (not active) | EC50 [6]: 9.1 µM (active) | EC50 [7]: 12.9 µM (active) | EC50 [8]: 5.96 µM (active)

O=C(O)CCc1c2ccc(=O)c(O)c-2oc2c(O)c(O)ccc12
IC50 [9]: 3.98 µM (active) | IC50 [10]: 0.578 µM (active)

COC(=O)c1cc(Br)c(=O)n(-c2nccs2)c1
IC50 [11]: > 39.8 µM (not active) | EC50 [12]: > 79.4 µM (not active) | IC50 [13]: 6.29 µM (active) | EC50 [14]: > 79.4 µM (not active) | EC50 [15]: > 79.4 µM (inactive)
